Read-outs that look alike come from different tables or passages of the source.

Consider 8 compounds from article PMC2587488 (Journal of pineal research, 2008).

The subject of series [1] is human liver microsomes. The note with it: cited from earlier work.
Series [2] deals with NADH oxidase. To be noted: isolated rat liver mitochondria; cited from earlier work.
Series [3] deals with rat microsomal cytochrome P450s. As to the kind of experiment: in vitro. To be noted: microsomes, pH 7.4, inhibition of melatonin O-demethylation (NAS formation).
The test system of series [4] is mitochondrial cytochrome P450s. The series can be described thus: in vitro. To be noted: rat, pH 7.4, inhibition of melatonin O-demethylation (NAS formation).
Series [5] relates to rat microsomal cytochrome P450s. To be noted: microsomes.
In series [6] the test system is mitochondrial cytochrome P450s. To be noted: mitochondria.
Series [7] concerns rat liver postmitochondrial supernatant. To be noted: cited from earlier work.
The test system of series [8] is CYP1A2. To be noted: liver slices and microsomes of treated rats; cited from earlier work.
Where [9] appears, read: 6-HMel formation from melatonin.

For orientation: inhibition means the drop in the measured response relative to a control, in per cent. A low value points to a weak effect. Consider `CC(=O)N1CCN(c2ccc(OCC3COC(Cn4ccnc4)(c4ccc(Cl)cc4Cl)O3)cc2)CC1` (stereo not shown) [Ketoconazole, ketoconazole], for which the “inhibition of melatonin metabolism” value in series [1] is “only weak inhibitors”. Moreover, the “inhibition of NADH oxidase” value in series [2] is “dose-dependent inhibition”. Also, the inhibition at 60 min, 5 μM in series [3] was determined as 52%; in series [4], 49%.

Turning to `COc1ccc2[nH]cc(CCNC(C)=O)c2c1` [melatonin, N-acetyl-5-methoxytryptamine], the results for the “Km1 (high affinity component)” value in series [5] (setting [9]), in series [5] (NAS formation from melatonin) and in series [6] (NAS formation from melatonin) were 48.33 ± 9.17 µM, 25.86 ± 1.39 µM and 13.96 ± 2.37 µM, respectively. Moreover, the “Km2 (low affinity component)” value amounted to 496.8 ± 53.78 µM in series [5] (setting [9]), 953.3 ± 85.95 µM in series [5] (NAS formation from melatonin) and 406.6 ± 19.84 µM in series [6] (setting [9]).

`Nc1ccc(S(=O)(=O)Nc2ccnn2-c2ccccc2)cc1` [sulfaphenazole] returned an inhibition at 60 min, 10 μM in series [4] of 27%.

Regarding `CCN(CC)C(=S)S` [Diethyldihydrocarbamate, diethyldithiocarbamate], the inhibition at 60 min, 50 μM in series [3] turned out to be 38%; in series [4] it was 74%.

`Cc1nc2c([nH]1)c(=O)n(C)c(=O)n2Cc1ccco1` [Furafylline, furafylline]: in series [7], the “inhibition of the conversion of melatonin to 6-sulphatoxymelatonin” value is listed as “inhibited markedly”. Further, the inhibition at 60 min, 20 μM in series [3] worked out at 27%; in series [4] it was 63%.

Turning to `O=c1cc(-c2ccccc2)oc2c1ccc1ccccc12` [α-naphthoflavone], the “increase in melatonin conversion to 6-sulphatoxymelatonin” value in series [8] is recorded as 3 fold.

Take `COc1ccc2[nH]c([S+]([O-])Cc3ncc(C)c(OC)c3C)nc2c1` (stereo not shown) [Omeprazole, omeprazole]: the inhibition at 60 min, 100 μM in series [3] came to 78%; in series [4], 81%.

As for `C=C[C@H]1C[N@@]2CC[C@H]1C[C@@H]2[C@@H](O)c1ccnc2ccc(OC)cc12` [Quinidine, quinidine], in series [1], the “inhibition of melatonin metabolism” value is “only weak inhibitors”. Further, the inhibition at 60 min, 5 μM in series [3] was determined as 38%; in series [4], 33%.
